Data published in US20220009906A1, “ISOINDOLIN-1-ONE DERIVATIVES USEFUL AS GRK2 INHIBITORS” (priority 2020, published 2022).

Key:
GRK2 [1] = biological target: T1, GRK2 (Homo sapiens, UniProt P25098); assay: GRK2 Transcreener Assay; type: biochemical; settings: Biological Example 2 GRK2 Transcreener IC50 (μM), 10 nM GRK2; 10 μM ATP; 150 μM peptide substrate; multiple measurements listed individually
T1 sequence (P25098 1-689): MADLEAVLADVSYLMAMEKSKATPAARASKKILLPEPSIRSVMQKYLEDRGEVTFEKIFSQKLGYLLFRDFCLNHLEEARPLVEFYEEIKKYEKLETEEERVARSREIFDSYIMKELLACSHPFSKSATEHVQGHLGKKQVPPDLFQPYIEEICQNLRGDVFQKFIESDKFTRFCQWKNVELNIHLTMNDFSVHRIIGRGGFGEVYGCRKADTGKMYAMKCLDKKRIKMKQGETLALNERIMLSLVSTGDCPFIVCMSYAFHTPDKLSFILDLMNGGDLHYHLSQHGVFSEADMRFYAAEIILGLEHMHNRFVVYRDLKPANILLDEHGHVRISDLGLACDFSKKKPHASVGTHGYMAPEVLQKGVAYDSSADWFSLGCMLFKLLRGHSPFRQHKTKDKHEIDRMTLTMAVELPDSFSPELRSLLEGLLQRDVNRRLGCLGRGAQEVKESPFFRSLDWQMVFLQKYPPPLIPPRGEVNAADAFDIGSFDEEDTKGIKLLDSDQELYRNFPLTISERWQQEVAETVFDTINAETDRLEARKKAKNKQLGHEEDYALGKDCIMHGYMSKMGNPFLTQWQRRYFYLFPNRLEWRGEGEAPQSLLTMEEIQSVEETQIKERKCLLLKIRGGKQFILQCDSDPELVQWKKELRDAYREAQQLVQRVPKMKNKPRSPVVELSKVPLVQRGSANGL
Experimental: Positive and negative control wells received an equal volume of DMSO. The final DMSO concentration in the assay is 1%.
The plate was placed in centrifuge equipped with a spin-bucket rotor and spun for 1 min at 1000 rpm.
GRK2 enzymatic reactions were initiated with the addition of 2 μL/well of 50 nM GRK2 in assay buffer. Plates were centrifuged for 1 min at 1000 rpm. For negative control wells, the order of reagent addition was reversed: 10 μL/well ADP detection mix (see below) was added first, followed by the addition of 2 μL/well of the GRK2 solution. Reaction mixtures were incubated at ambient temperature for 2 hours. Final concentrations of reagents in the assays were as follows:
Following incubation, the reactions were quenched with 10 μL/well of the Transcreener ADP detection mix. […] The plates were then centrifuged for 1 min at 1000 rpm.
Fluorescence polarization values of the reaction mixtures were read on a Safire plate reader after a 60 min incubation at ambient temperature. Excitation wavelength=590 nm; emission wavelength=650 nm.
The fluorescence polarization data were converted to % activity as follows:
% activity=(sample−NC)/(PC−NC)*100
where NC is the mean of negative control (ADP detection mix added prior to GRK2 addition), and PC is the mean of positive control (GRK2 reaction without inhibitor). IC50 values are determined from a 4-parameter fit, using the following equation:
Y=Bottom+(Top−Bottom)/(1+10^((Log IC50−X)*Hill slope))
where X=log10 of the compound concentration.

GRK2 [2] = biological target: T1, GRK2; assay: hGRK2 LANCE Ultra In Vitro Assay; type: biochemical; settings: 10 nM GRK2, 30 or 600 μM ATP (not stated which), multiple measurements listed individually
Outline: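 TR-FRET kinase assay with 10 nM GRK2 preincubated 30 min with compound, then 200 nM ULight-peptide and 30 or 600 μM ATP in HEPES pH 7.5, 10 mM MgCl2, 1% DMSO; 120 or 60 min at ambient temperature respectively.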

[3] = Biological Example 1 GRK2 Lancer IC50 (μM)

How did the IC50 (GRK2 [1]) turn out when COc1cccc(CN2Cc3ccc(-c4ccnc(N)n4)cc3C2=O)c1 [Compound 4] was run?
Its IC50 is 0.08 µM.

Which IC50 (GRK2 [2]; [3]) does the source give for COc1cccc(C(CO)N2Cc3c(cc(-c4cn[nH]c4)cc3-c3cncc(F)c3)C2=O)c1 (centres unmarked) [Compound 152, 4-(5-fluoropyridin-3-yl)-2-(2-hydroxy-1-(3-methoxyphenyl)ethyl)-6-(1H-pyrazol-4-yl)isoindolin-1-one] here?
The IC50 was 0.017 µM.

How did the IC50 (GRK2 [2]; [3]) turn out when CNC(=O)c1nccc(-c2ccc3c(c2)C(=O)N(Cc2ccc(OC)cc2)C3)n1 [Compound 47, 4-(2-(4-methoxybenzyl)-3-oxoisoindolin-5-yl)-N-methylpyrimidine-2-carboxamide] was run?
The IC50 was ~10 µM.

With COc1cccc(CN2C(=O)c3cc(-c4cn[nH]c4)ccc3C23CCCCC3)c1 [Compound 81, 2′-(3-methoxybenzyl)-5′-(1H-pyrazol-4-yl)spiro[cyclohexane-1,1′-isoindolin]-3′-one] as the compound, how does the IC50 (GRK2 [2]; [3]) read?
The IC50 was 0.011 µM.

For COc1cccc([C@@H](C)N2Cc3c(cc(-c4cn[nH]c4)cc3C3CCNC3)C2=O)c1 (stereo partly drawn) [Compound 144, 2-((R)-1-(3-methoxyphenyl)ethyl)-6-(1H-pyrazol-4-yl)-4-(pyrrolidin-3-yl)isoindolin-1-one], which IC50 (GRK2 [2]; read-out: Biological Example 1 GRK2 Lancer IC50) is on record?
The IC50 was 0.007 µM.

COc1cccc(C(CO)N2C(=O)c3cc(-c4cn[nH]c4)ccc3C23CCCC3)c1 (centres unmarked) [Compound 79, 2′-(2-hydroxy-1-(3-methoxyphenyl)ethyl)-5′-(1H-pyrazol-4-yl)spiro[cyclopentane-1,1′-isoindolin]-3′-one] was tested. Which IC50 (GRK2 [2]; [3]) did it give?
Its IC50 is 0.03 µM.

For COc1cccc(CN2Cc3ccc(-c4ccncc4)cc3C2=O)c1 [Compound 66], which IC50 (GRK2 [2]; [3]) is on record?
The IC50 was 0.023 µM.

For CCOc1cccc([C@H](C(=O)OC)N2Cc3ccc(-c4ccncc4)cc3C2=O)c1 [Compound 76], which IC50 (GRK2 [2]; [3]) is on record?
Its IC50 is > 20 µM.

With COc1cccc(CN2C(=O)c3cc(-c4cn[nH]c4)ccc3C23CCOC3)c1 (centres unmarked) [Compound 75, 2′-(3-methoxybenzyl)-5′-(1H-pyrazol-4-yl)-4,5-dihydro-2H-spiro[furan-3,1′-isoindolin]-3′-one] as the compound, how does the IC50 (GRK2 [2]; [3]) read?
Its IC50 is 0.007 µM.

For CCOc1cccc(C(C(=O)O)N2Cc3ccc(-c4ccncc4)cc3C2=O)c1 (centres unmarked) [Compound 77], which IC50 (GRK2 [2]; [3]) is on record?
Its IC50 is > 20 µM.

How did the IC50 (GRK2 [2]; [3]) turn out when COc1cccc([C@@H](C)N2Cc3ccc(-n4cn[nH]c4=O)cc3C2=O)c1 [Compound 40, (R)-2-(1-(3-methoxyphenyl)ethyl)-6-(5-oxo-1,5-dihydro-4H-1,2,4-triazol-4-yl)isoindolin-1-one] was run?
Its IC50 is 0.115 µM.

For COc1cccc(C(CC(=O)O)N2Cc3ccc(-c4cn[nH]c4)cc3C2=O)c1 (centres unmarked) [Compound 100, 3-(3-methoxyphenyl)-3-(1-oxo-6-(1H-pyrazol-4-yl)isoindolin-2-yl)propanoic acid], which IC50 (GRK2 [2]; [3]) is on record?
The IC50 was 6.24 µM.

Which IC50 (GRK2 [2]; [3]) does the source give for O=C(N[C@H]1C[C@H]2CC[C@@H]1C2)c1cccc(CN2Cc3ccc(-c4cn[nH]c4)cc3C2=O)c1 [Compound 128] here?
The IC50 was < 0.005 µM.

With COc1cncc(-c2cc(-c3cn[nH]c3)cc3c2CN([C@H](C)c2cccc(OC)c2)C3=O)c1 [Compound 126, (R)-2-(1-(3-methoxyphenyl)ethyl)-4-(5-methoxypyridin-3-yl)-6-(1H-pyrazol-4-yl)isoindolin-1-one] as the compound, how does the IC50 (GRK2 [2]; [3]) read?
Its IC50 is 0.024 µM.

Which IC50 (GRK2 [2]; [3]) does the source give for COc1cccc(CN2C(=O)c3cc(-c4cn[nH]c4)ccc3C23CCC2NC(=O)OC23)c1 (centres unmarked) [Compound 150, 2′-(3-methoxybenzyl)-5′-(1H-pyrazol-4-yl)-3a,4,5,6a-tetrahydrospiro[cyclopenta[d]oxazole-6,1′-isoindoline]-2,3′(3H)-dione] here?
The IC50 was 0.013 µM.

With COc1cccc([C@@H](C)N2C(=O)c3cc(-c4cn[nH]c4)ccc3C23CCC(O)C3)c1 (mixture of isomers) [Compound 173] as the compound, how does the IC50 (GRK2 [2]; [3]) read?
Its IC50 is 0.092 µM.

For COc1cccc([C@@H](C)N2C(=O)c3cc(-c4cn[nH]c4)ccc3[C@H]2CC(=O)O)c1 (single isomer, unassigned) [Compound 98], which IC50 (GRK2 [2]; [3]) is on record?
The IC50 was 0.106 µM.

How did the IC50 (GRK2 [2]; [3]) turn out when COC(=O)[C@H](c1cccc(OC)c1)N1Cc2ccc(-c3cn[nH]c3)cc2C1=O [Compound 72] was run?
The IC50 was 0.13 µM.

For O=C(Nc1ccc(F)c(F)c1)c1cccc(CN2Cc3ccc(-c4cn[nH]c4)cc3C2=O)c1 [Compound 34], which IC50 (GRK2 [2]; [3]) is on record?
Its IC50 is 0.006 µM.

COc1cccc(C(COCC(=O)O)N2Cc3ccc(-c4cn[nH]c4)cc3C2=O)c1 (centres unmarked) [Compound 60, 2-(2-(3-methoxyphenyl)-2-(1-oxo-6-(1H-pyrazol-4-yl)isoindolin-2-yl)ethoxy)acetic acid] was tested. Which IC50 (GRK2 [2]; [3]) did it give?
Its IC50 is 0.017 µM.

CCOc1cccc(C(CO)N2Cc3ccc(-c4cn[nH]c4)cc3C2=O)c1 (centres unmarked) [Compound 53, 2-(2-Hydroxy-1-(3-ethoxyphenyl)ethyl)-6-(1H-pyrazol-4-yl)isoindolin-1-one] was tested. Which IC50 (GRK2 [2]; [3]) did it give?
Its IC50 is 0.008 µM.

With O=C1c2cc(-c3cn[nH]c3)ccc2CN1Cc1ccc(F)s1 [Compound 43, 2-((5-Fluorothiophen-2-yl)methyl)-6-(1H-pyrazol-4-yl)isoindolin-1-one] as the compound, how does the IC50 (GRK2 [2]; [3]) read?
Its IC50 is 0.088 µM.

COc1cccc([C@@H](C)N2Cc3c(cc(-c4cn[nH]c4)cc3-c3cncc(F)c3)C2=O)c1 [Compound 120, (R)-4-(5-fluoropyridin-3-yl)-2-(1-(3-methoxyphenyl)ethyl)-6-(1H-pyrazol-4-yl)isoindolin-1-one] was tested. Which IC50 (GRK2 [2]; [3]) did it give?
Its IC50 is 0.009 µM.

For COc1cccc(C(COCCO)N2Cc3ccc(-c4cn[nH]c4)cc3C2=O)c1 (centres unmarked) [Compound 63, 2-(2-(2-Hydroxyethoxy)-1-(3-methoxyphenyl)ethyl)-6-(1H-pyrazol-4-yl)isoindolin-1-one], which IC50 (GRK2 [2]; [3]) is on record?
Its IC50 is 0.008 µM.

How did the IC50 (GRK2 [2]; [3]) turn out when COc1cccc(C(COCC(N)=O)N2Cc3ccc(-c4cn[nH]c4)cc3C2=O)c1 (centres unmarked) [Compound 62, 2-(2-(3-Methoxyphenyl)-2-(1-oxo-6-(1H-pyrazol-4-yl)isoindolin-2-yl)ethoxy)acetamide] was run?
Its IC50 is 0.007 µM.

How did the IC50 (GRK2 [2]; [3]) turn out when CCOc1cccc([C@H](C(=O)OC)N2Cc3ccc(-c4cn[nH]c4)cc3C2=O)c1 [Compound 73] was run?
Its IC50 is 1.39 µM.

Which IC50 (GRK2 [2]; [3]) does the source give for O=C(Oc1cccc(CN2Cc3ccc(-c4cn[nH]c4)cc3C2=O)c1)C1CC1 [Compound 137] here?
The IC50 was 0.034 µM.

O=C(O)COc1cccc(CN2Cc3ccc(-c4cn[nH]c4)cc3C2=O)c1 [Compound 55] was tested. Which IC50 (GRK2 [2]; [3]) did it give?
The IC50 was 0.011 µM.

For COc1cccc(C(CO)N2Cc3c(cc(-c4cn[nH]c4)cc3-c3cccc(O)c3)C2=O)c1 (centres unmarked) [Compound 143, 2-(2-hydroxy-1-(3-methoxyphenyl)ethyl)-4-(3-hydroxyphenyl)-6-(1H-pyrazol-4-yl)isoindolin-1-one], which IC50 (GRK2 [2]; [3]) is on record?
The IC50 was 0.005 µM.

With COc1cccc([C@@H](C)N2Cc3c(cc(-c4cn[nH]c4)cc3N3CCN(C)CC3)C2=O)c1 [Compound 156, (R)-2-(1-(3-methoxyphenyl)ethyl)-4-(4-methylpiperazin-1-yl)-6-(1H-pyrazol-4-yl)isoindolin-1-one] as the compound, how does the IC50 (GRK2 [2]; [3]) read?
The IC50 was 0.011 µM.

With COc1cccc(CN2C(=O)c3cc(-c4cn[nH]c4)ccc3C23CCc2c(O)cccc23)c1 (centres unmarked) [Compound 89, 4-hydroxy-2′-(3-methoxybenzyl)-5′-(1H-pyrazol-4-yl)-2,3-dihydrospiro[indene-1,1′-isoindolin]-3′-one] as the compound, how does the IC50 (GRK2 [2]; [3]) read?
Its IC50 is 0.144 µM.

Which IC50 (GRK2 [2]; [3]) does the source give for COc1cccc([C@@H](C)N2Cc3c(cc(-c4cn[nH]c4)cc3-c3cc(C)nc(C)c3)C2=O)c1 [Compound 132, (R)-4-(2,6-dimethylpyridin-4-yl)-2-(1-(3-methoxyphenyl)ethyl)-6-(1H-pyrazol-4-yl)isoindolin-1-one] here?
Its IC50 is 0.005 µM.

COc1cccc([C@@H](C)N2Cc3c(cc(-c4cn[nH]c4)cc3-c3cccc(O)c3)C2=O)c1 [Compound 139, (R)-4-(3-hydroxyphenyl)-2-(1-(3-methoxyphenyl)ethyl)-6-(1H-pyrazol-4-yl)isoindolin-1-one] was tested. Which IC50 (GRK2 [2]; [3]) did it give?
The IC50 was 0.033 µM.

How did the IC50 (GRK2 [2]; [3]) turn out when COc1cccc(CN2C(=O)c3cc(-c4cn[nH]c4)ccc3C23CCC2OC(=O)NC23)c1 (centres unmarked) [Compound 151, 2′-(3-methoxybenzyl)-5′-(1H-pyrazol-4-yl)-3a,5,6,6a-tetrahydrospiro[cyclopenta[d]oxazole-4,1′-isoindoline]-2,3′(3H)-dione] was run?
The IC50 was 0.011 µM.

Which IC50 (GRK2 [2]; [3]) does the source give for COc1cccc(C(Cc2nnn[nH]2)N2Cc3ccc(-c4cn[nH]c4)cc3C2=O)c1 (centres unmarked) [Compound 84] here?
The IC50 was 0.167 µM.
